Experimental data taken from ChEMBL document CHEMBL5136992, “Fascinating Transformation of SAM-Competitive Protein Methyltransferase Inhibitors from Nucleoside Analogues to Non-Nucleoside Analogues” (J Med Chem, 2022).
pIC50, pKi: −log10 of the molar value. Converted amounts (≈) assume the structure as drawn.

How the values were obtained:
cells = conditions: Homo sapiens, MCF-10A
Description: Inhibition of methylation of H3K79 in human MCF-10A cells by fluorescence assay

[1] = target: T1, Histone-lysine N-methyltransferase EZH2 (Homo sapiens, UniProt Q15910, Y641N); test: Binding affinity to EZH2 Y641N mutant (unknown origin) assessed as inhibition constant
[2] = Aqueous solubility of the compound; format: physicochemical; conditions: buffer
[3] = target: Protein arginine N-methyltransferase 1 (Homo sapiens, UniProt Q99873); test: Inhibition of PRMT1 (unknown origin)
[4] = target: T2, Histone-arginine methyltransferase CARM1 (Homo sapiens, UniProt Q86X55); test: Inhibition of PRMT4 (unknown origin)
T2 sequence (Q86X55 whole entry): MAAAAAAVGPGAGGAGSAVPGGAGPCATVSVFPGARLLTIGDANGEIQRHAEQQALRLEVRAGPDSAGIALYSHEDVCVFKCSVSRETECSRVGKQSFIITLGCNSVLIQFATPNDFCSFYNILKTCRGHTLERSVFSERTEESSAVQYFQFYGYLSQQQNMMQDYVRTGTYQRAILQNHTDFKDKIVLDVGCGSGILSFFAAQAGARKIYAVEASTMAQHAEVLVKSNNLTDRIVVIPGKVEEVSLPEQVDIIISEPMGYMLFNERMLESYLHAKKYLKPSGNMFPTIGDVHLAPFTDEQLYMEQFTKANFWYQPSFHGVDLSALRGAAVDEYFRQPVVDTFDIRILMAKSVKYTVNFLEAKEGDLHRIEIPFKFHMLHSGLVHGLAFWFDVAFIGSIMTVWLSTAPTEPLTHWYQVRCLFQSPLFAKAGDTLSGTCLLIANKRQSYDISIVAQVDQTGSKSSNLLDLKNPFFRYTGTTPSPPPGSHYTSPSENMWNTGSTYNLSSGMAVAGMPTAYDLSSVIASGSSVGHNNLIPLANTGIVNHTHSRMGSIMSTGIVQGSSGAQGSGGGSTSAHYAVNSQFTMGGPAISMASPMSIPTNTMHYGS

[5] = target: T3, Histone-lysine N-methyltransferase, H3 lysine-79 specific (Homo sapiens, UniProt Q8TEK3); test: Inhibition of DOT1L (unknown origin)
[6] = target: T4, Histone-lysine N-methyltransferase EZH2 (Homo sapiens, UniProt Q15910); test: Inhibition of wild type EZH2 (unknown origin)
Target sequence in this assay (Q15910 whole entry): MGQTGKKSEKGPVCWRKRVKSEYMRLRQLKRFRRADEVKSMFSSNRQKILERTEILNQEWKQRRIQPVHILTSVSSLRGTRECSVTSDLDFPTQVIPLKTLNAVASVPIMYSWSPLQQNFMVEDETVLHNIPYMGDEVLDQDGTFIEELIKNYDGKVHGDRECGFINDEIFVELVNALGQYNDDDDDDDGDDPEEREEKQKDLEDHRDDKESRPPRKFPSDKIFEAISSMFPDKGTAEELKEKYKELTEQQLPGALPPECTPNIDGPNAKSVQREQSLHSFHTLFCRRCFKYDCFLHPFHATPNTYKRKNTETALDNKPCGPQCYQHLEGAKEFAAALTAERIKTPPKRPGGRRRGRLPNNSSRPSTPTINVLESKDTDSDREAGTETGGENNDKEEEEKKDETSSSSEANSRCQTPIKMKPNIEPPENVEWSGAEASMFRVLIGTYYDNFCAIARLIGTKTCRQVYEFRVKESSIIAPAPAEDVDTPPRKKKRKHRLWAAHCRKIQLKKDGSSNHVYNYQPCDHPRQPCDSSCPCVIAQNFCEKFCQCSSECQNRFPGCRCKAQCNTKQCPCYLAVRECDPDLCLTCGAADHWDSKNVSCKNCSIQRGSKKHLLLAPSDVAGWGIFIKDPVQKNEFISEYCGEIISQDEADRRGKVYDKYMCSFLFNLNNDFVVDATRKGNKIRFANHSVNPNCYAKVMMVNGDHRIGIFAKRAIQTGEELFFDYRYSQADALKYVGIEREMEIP

[7] = target: T1, Histone-lysine N-methyltransferase EZH2; test: Inhibition of EZH2 Y641N mutant (unknown origin)
[8] = target: T4, Histone-lysine N-methyltransferase EZH2; test: Inhibition of EZH2 (unknown origin)
Target sequence in this assay (Q15910 whole entry): as above

[9] = target: Protein arginine N-methyltransferase 5 (Homo sapiens, UniProt O14744); test: Inhibition of PRMT5 (unknown origin)
[10] = target: T5, Histone-lysine N-methyltransferase SETD7 (Homo sapiens, UniProt Q8WTS6); test: Inhibition of SET7 (unknown origin)
T5 sequence (Q8WTS6 whole entry): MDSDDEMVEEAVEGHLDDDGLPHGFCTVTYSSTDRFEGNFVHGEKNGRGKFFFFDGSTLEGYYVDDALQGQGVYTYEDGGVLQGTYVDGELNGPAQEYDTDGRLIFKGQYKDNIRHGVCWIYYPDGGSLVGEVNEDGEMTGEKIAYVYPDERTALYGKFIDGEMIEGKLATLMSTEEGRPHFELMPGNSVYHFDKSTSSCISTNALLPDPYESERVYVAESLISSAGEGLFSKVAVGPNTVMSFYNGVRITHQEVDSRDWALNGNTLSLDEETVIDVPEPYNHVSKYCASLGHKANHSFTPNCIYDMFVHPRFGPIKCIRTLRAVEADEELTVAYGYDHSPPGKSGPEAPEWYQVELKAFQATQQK

[11] = target: T6, Histone-lysine N-methyltransferase EHMT1 (Homo sapiens, UniProt Q9H9B1); test: Inhibition of EHMT1 (unknown origin)
T6 sequence (Q9H9B1 whole entry): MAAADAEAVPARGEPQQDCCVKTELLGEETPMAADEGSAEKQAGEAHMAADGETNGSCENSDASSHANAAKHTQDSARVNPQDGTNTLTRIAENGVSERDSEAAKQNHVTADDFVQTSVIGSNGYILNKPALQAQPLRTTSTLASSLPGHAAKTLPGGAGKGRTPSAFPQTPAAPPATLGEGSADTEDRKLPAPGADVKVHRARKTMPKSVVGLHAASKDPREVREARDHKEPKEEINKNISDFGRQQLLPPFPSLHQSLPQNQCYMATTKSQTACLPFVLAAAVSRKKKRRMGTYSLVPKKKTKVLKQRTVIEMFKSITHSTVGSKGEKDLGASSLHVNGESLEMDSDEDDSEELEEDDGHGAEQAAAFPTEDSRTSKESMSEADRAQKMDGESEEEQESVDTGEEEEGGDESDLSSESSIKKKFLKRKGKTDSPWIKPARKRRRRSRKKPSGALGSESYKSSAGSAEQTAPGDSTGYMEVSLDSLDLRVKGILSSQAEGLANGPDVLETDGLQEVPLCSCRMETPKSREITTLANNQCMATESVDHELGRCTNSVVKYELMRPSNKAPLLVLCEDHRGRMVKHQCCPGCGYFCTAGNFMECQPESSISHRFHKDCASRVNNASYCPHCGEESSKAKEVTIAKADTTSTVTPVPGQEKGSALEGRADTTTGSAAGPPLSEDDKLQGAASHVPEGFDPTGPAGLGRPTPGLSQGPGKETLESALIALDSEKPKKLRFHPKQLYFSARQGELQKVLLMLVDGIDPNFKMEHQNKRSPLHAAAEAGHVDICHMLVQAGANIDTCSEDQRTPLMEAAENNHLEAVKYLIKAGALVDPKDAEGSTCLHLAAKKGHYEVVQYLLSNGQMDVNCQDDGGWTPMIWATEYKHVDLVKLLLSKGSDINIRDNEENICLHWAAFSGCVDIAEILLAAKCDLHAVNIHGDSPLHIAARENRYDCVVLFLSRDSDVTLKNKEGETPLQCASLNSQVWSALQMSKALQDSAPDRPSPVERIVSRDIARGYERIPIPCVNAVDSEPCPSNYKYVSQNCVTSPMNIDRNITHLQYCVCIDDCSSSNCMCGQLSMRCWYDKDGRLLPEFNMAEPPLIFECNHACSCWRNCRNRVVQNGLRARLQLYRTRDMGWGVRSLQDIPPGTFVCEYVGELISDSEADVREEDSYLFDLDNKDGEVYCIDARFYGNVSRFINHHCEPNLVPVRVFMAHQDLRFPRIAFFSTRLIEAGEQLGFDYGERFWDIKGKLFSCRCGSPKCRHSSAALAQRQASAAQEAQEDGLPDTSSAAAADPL

[12] = target: T7, Histone-lysine N-methyltransferase EHMT2 (Homo sapiens, UniProt Q96KQ7); test: Inhibition of G9a (unknown origin)
T7 sequence (Q96KQ7 whole entry): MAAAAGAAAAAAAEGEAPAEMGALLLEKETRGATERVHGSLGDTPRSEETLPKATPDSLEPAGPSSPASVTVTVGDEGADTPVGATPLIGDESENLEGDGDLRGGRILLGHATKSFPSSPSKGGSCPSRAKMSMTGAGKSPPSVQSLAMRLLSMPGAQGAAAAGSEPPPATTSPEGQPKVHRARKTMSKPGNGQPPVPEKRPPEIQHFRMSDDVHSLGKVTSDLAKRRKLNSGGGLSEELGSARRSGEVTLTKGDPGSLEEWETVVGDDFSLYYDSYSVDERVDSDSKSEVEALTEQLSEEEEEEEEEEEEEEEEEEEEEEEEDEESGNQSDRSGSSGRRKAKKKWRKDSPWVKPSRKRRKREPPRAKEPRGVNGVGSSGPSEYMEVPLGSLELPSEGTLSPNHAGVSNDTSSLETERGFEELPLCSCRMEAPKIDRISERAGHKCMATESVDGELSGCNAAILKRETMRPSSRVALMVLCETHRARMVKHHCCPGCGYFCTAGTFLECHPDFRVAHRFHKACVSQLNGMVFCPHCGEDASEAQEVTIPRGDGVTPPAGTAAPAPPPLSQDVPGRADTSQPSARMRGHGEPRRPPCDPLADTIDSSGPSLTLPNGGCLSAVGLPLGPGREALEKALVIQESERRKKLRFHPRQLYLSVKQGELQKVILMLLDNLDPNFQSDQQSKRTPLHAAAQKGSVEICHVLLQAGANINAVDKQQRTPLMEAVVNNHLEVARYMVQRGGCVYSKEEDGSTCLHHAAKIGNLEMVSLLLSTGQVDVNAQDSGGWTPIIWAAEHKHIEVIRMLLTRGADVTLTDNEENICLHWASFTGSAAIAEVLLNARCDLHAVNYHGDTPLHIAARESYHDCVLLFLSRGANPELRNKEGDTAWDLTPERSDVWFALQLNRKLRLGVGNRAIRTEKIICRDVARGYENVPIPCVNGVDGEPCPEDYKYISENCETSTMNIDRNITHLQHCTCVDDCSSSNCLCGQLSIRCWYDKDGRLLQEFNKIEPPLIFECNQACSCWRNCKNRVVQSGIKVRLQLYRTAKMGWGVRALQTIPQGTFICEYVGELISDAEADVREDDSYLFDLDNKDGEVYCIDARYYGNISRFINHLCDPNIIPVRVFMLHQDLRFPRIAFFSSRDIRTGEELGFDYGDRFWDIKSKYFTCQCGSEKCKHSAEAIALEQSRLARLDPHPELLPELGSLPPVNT

[13] = target: T4, Histone-lysine N-methyltransferase EZH2; test: Binding affinity to EZH2 (unknown origin) assessed as inhibition constant
Target sequence in this assay (Q15910 whole entry): as the sequence (Q15910 whole entry) above

MV4-11 = test: Antiproliferative activity against human MV4-11 cells; format: functional, cell-based
[14] = target: T3, Histone-lysine N-methyltransferase, H3 lysine-79 specific; test: Inhibition of human recombinant DOT1L by methyltransferase-Glo Bioluminescent assay
[15] = target: T4, Histone-lysine N-methyltransferase EZH2; test: Inhibition of EZH2 (unknown origin) assessed as residence time
Target sequence in this assay (Q15910 whole entry, looked up): as the sequence (Q15910 whole entry) above

T3 sequence (Q8TEK3 whole entry): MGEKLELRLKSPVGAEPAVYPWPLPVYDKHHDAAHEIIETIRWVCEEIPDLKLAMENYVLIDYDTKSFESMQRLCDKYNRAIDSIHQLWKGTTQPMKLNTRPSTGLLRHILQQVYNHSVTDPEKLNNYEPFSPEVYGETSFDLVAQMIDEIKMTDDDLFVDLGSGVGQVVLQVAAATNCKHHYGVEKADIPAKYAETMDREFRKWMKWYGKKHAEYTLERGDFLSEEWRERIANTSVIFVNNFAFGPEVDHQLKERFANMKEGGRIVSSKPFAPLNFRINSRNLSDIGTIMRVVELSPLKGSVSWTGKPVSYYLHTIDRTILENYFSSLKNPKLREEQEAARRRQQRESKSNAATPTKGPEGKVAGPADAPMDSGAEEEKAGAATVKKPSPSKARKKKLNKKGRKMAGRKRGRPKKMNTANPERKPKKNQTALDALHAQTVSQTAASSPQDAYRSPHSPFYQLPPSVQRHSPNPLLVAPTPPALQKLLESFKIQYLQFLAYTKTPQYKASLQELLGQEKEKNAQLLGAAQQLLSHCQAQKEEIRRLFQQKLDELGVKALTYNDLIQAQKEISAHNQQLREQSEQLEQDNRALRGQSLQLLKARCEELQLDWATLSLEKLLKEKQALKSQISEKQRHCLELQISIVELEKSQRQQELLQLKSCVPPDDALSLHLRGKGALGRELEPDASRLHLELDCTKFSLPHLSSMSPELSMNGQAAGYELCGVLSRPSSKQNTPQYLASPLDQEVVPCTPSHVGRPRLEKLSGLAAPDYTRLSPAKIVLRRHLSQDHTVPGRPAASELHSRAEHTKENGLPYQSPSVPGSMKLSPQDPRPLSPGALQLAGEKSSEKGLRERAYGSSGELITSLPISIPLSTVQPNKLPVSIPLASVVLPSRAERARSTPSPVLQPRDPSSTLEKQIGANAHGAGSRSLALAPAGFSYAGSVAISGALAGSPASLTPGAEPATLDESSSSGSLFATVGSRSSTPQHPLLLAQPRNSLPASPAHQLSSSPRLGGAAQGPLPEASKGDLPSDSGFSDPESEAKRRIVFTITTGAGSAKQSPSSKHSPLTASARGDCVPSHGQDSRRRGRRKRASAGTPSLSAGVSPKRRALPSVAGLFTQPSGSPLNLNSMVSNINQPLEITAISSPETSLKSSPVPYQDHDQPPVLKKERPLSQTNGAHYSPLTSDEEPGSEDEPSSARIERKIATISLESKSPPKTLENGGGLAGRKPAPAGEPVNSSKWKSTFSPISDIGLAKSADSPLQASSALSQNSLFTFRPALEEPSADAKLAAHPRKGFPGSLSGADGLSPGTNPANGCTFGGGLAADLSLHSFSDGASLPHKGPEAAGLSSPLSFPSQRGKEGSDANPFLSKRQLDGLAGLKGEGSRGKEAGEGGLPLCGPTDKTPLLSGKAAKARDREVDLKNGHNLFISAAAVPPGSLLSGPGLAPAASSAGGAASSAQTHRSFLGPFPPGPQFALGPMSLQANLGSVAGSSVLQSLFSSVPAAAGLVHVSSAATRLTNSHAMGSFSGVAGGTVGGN
Chain of Protein arginine N-methyltransferase 5 (O14744 whole entry): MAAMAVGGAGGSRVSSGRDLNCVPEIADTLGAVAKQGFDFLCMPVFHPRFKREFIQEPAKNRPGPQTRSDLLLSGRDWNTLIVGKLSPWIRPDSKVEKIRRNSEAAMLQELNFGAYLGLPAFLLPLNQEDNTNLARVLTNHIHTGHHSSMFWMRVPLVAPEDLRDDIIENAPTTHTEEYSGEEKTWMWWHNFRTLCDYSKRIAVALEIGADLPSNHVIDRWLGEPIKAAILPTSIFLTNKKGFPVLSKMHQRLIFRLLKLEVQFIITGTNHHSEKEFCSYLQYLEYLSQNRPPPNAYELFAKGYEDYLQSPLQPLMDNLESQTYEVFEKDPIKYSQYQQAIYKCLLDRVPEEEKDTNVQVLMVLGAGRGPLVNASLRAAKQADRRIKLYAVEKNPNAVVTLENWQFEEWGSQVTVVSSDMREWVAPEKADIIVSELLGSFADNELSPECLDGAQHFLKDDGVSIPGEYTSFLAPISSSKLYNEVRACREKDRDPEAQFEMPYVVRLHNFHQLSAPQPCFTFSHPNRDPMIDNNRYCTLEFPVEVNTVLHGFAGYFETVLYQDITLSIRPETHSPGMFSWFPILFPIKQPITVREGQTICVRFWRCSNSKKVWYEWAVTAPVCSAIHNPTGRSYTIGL
T1 sequence (Q15910 whole entry Y641N): as the sequence (Q15910 whole entry) above, with Y641N counted along it
Chain of Protein arginine N-methyltransferase 1 (Q99873 whole entry): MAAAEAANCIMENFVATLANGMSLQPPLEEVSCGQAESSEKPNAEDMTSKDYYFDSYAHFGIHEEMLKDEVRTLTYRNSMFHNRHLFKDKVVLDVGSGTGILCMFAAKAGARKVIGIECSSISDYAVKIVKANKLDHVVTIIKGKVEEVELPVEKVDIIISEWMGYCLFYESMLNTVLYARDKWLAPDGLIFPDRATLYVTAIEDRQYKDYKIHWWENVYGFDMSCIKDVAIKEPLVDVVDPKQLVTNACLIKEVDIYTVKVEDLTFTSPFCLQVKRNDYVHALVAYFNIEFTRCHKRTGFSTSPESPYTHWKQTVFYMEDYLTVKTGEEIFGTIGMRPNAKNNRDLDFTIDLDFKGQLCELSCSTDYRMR

CC(C)N(CCCNC(=O)Nc1ccc(C(C)(C)C)cc1)C[C@@H]1O[C@H](n2cc(Br)c3c(N)ncnc32)[C@@H](O)[C@H]1O
pIC50 (cells): 8.06

CO[C@@H](c1cc(Cl)c2c(c1Cl)C(=O)N(Cc1c(C)cc(C)[nH]c1=O)CC2)C1COC1
pKi [1]: > 10.00
solubility [2]: 315 µg/mL (≈ 698 µM)

CNc1ccnc(Nc2ccc3cc(C)n(-c4ccccc4Oc4cnc5c(c4)ncn5C)c3c2)n1
pIC50 (cells): 7.80

N=C(N)NCCCN(CCCN)C[C@@H]1O[C@H](n2cnc3c(N)ncnc32)[C@@H](O)[C@H]1O
pIC50 [3]: 5.14
pIC50 [4]: 5.64

Nc1ncnc2ccc(N(CC#CC(O)c3nccn3CCO)c3c(Cl)cccc3Cl)cc12 (configuration not stated)
pIC50 [5]: 4.85

CCC(CC)n1ncc2c(C(=O)NCc3c(C)cc(C)[nH]c3=O)cc(C#N)cc21
pIC50 [6]: 7.82
pIC50 [7]: 7.89

Nc1ncnc2c1ncn2[C@H]1O[C@@H](CSCC[C@H](N)C(=O)NCc2cc(-c3ccccc3)[nH]n2)[C@H](O)[C@@H]1O
pIC50 [8]: 6.57

NCCCN(CCCNc1ccccn1)C[C@@H]1O[C@H](n2cnc3c(N)ncnc32)[C@@H](O)[C@H]1O
pIC50 [4]: 7.05

Cc1cc(C)c(CN2CCc3c(Cl)cc(-c4c(C)noc4C)c(Cl)c3C2=O)c(=O)[nH]1
pIC50 [8]: > 8.30
solubility [2]: 2 µg/mL (≈ 4.48 µM)

CCNC(=O)NCCCSC[C@@H]1O[C@H](n2cnc3c(N)ncnc32)[C@@H](O)[C@H]1O
pIC50 [9]: 5.22

Nc1ncnc2c1ncn2[C@H]1O[C@@H](C[C@H](N)CC[C@H](N)C(=O)O)[C@H](O)[C@@H]1O
pIC50 [10]: 5.60
pIC50 [11]: 3.29
pIC50 [5]: 4.59

Nc1ncnc2c1ccn2[C@H]1O[C@@H]([C@H](O)c2ccccc2)[C@H](O)[C@@H]1O
pIC50 [9]: 8.02

COc1cccc(C(=O)NCc2c(C)cc(C)[nH]c2=O)c1Cl
pIC50 [8]: 8.14

NC(=O)CNC(=O)Nc1ccc2ccn(-c3ccccc3Cl)c2c1
pIC50 [5]: 5.05

CN(CCCNC(=O)CNC(=O)Nc1ccc2sc(Cl)c(-c3cccnc3)c2c1)[C@@H]1CCCC(c2ncnc3[nH]ccc23)C1 (some centres not stated)
pIC50 [5]: > 7.00

CNc1ccnc(Nc2ccc3sc(Cl)c(-c4cc(-c5c(C)ncn(C)c5=O)cnc4Cl)c3c2)n1
pIC50 [5]: 5.85
pIC50 (cells): 7.64

Nc1cccc(CCC[C@@H]2C[C@H](n3ccc4c(N)ncnc43)[C@@H](O)[C@H]2O)n1
pIC50 [9]: 9.40

Nc1ncnc2c1ncn2[C@H]1O[C@@H](CN(CCI)CCC[C@H](N)C(=O)O)[C@H](O)[C@@H]1O
pIC50 [12]: 5.74
pIC50 [4]: 5.96

CCC(CC)n1ncc2c(C(=O)NCc3c(C)cc(C)[nH]c3=O)cc(C3CC3)nc21
pIC50 [8]: 6.83

CCCCCCNCCN(CC[C@H](N)C(=O)O)C[C@@H]1O[C@H](n2cnc3c(N)ncnc32)[C@@H](O)[C@H]1O
pIC50 [10]: < 5.00

Cc1coc2c1C(=O)C(=O)c1c-2ccc2c1CC[C@@H](O)[C@]2(C)O
pIC50 [8]: 6.26
pKi [13]: 6.71

Cc1cc(Nc2ccc3nc(C)cc(N)c3c2)nc(Nc2ccc3nc(C)cc(N)c3c2)n1
pIC50 (MV4-11): 4.43

COc1cc([C@H]2Oc3c(O)cc(CCCO)cc3[C@@H]2CO)ccc1O[C@@H]1O[C@@H](C)[C@@H](O)[C@@H](O)[C@H]1O
pIC50 [14]: 6.40

CSc1cc(C)[nH]c(=O)c1CNC(=O)c1c(C)n([C@@H](C)[C@H]2CC[C@H](N3CC(OC4CC4)C3)CC2)c2ccccc12
pIC50 [8]: 10.24
TIME [15]: 57 h

CCCc1cc(C)[nH]c(=O)c1CNC(=O)c1cc(-c2ccc(N3CCN(C(C)C)CC3)nc2)cc2c1cnn2C(C)C
pIC50 [8]: > 8.00

CC(C)(C)c1ccc(CC(=O)c2ncn(CC(=O)NCCn3ccc4c(N)ncnc43)n2)cc1
pIC50 [5]: 6.00

Cc1cc(C)c(CNC(=O)c2c(C)n([C@H](C)C3CCN(CC(F)(F)F)CC3)c3ccccc23)c(=O)[nH]1
pIC50 [8]: 7.66
